Results from patent publication US6071944A, “Method of treatment of pigmented cancer cells utilizing photodynamic therapy” (Bowling Green State University, priority 1997, dated 2000).
“Also recorded” adds a separate entry of the source.

What was measured:
B16 pigmented melanoma = assay: Photodynamic therapy and high peak power irradiation studies: tumour regrowth of B16 pigmented melanoma; format: in vivo, C57 mice
Protocol: Female C57/BL6 and BALB/C mice (18-20 g body weight) obtained from Harlan Spraque Dawley, Inc. (Indianapolis, Ind.) were used as experimental models. B16 pigmented melanoma (the B16 cell line was obtained from American Type Culture Collection) was subcutaneously transplanted into the upper flank by injecting […] of a sterile cell suspension in PBS. The cell line was cultured in Dulbecco's modified minimal essential medium supplemented with 10% fetal calf serum. The cell culture was maintained at 37° C. in a humidified atmosphere of 5% CO2 in air. All of our experiments were performed at 5-7 days after injection of B16 melanoma cells, when the tumor volume was in the range of 0.02-0.04 cm^3 with an external diameter of 0.4-0.6 cm and a depth of 0.15-0.2 cm.
When the tumor diameter was in the range of 0.4-0.6 cm, groups of 7-8 B16 melanoma bearing mice were irradiated with 1064 nm light from the Nd: YAG laser at 500 or 650 mJ per pulse (HPP). In one group of mice at 24 h after isoBO--SiNc injection (1 mg/kg) the tumor area was exposed to 774 nm light from a dye laser which was operated at a fluence rate of 300 mW/cm^2 for a total light fluence of 520 J/cm^2. This PDT treatment was performed, in other two groups, also before or after the tumors had been exposed to 1064 nm light from the Nd: YAG (650 mJ). Another group of 8 mice was treated with PDT (isoBO--SiNc 1 mg/kg, 300 mW/cm^2, 520 J/cm^2) preceded by HPP (1064 nm, 650 mJ) and retreated in the same way 10 days later, when the tumors were regrowing.
In a parallel set of experiments, a sequential treatment involving HPP and PDT (with the same irradiation conditions mentioned above) was followed by an immediate further irradiation at 550 mW/cm^2 and 200 j/cm^2 from the same 774 nm light. For each group the effectiveness of the treatment was evaluated by comparing the rate of tumor growth of the irradiated mice with that observed for control mice transplanted simultaneously with the phototreated mice but not exposed to light and not injected with isoBO--SiNc. The tumor size was measured daily by means of a caliper. Individual tumor volumes (V) were calculated by assuming a hemiellipsoidal structure for the tumor nodule and measuring the two perpendicular axes (a and b) and the height (c). Application of the relationship V 2/3(a/2×b/2×c) provided the tumor volume. The time to reach a defined tumor volume was calculated for the individual tumors.
Special attention was paid to the recoveries obtained at 24 h and 48 h after injection since these time intervals correspond with the maximum isoBO--SiNc accumulation in a variety of transplanted tumors and are generally used for PDT. The data obtained for control mice were in good agreement with those previously found in our laboratory. […] On the basis of the above described findings, a PDT experiment (776 nm; 300 mW/cm^2 -520 J/cm^2) was performed at 24 h post injection, immediately after HPP irradiation with a single 650 mJ pulse of 1064 nm light.
HPP: High Peak Power irradiation from Nd: YAG laser, 1064 nm, […] per
PDT: Photodynamic Therapy from dye laser, 774 nm, 300 mW/cm^2, 520
PTT: Photothermal Therapy from dye laser, 774 nm, 550 mW/cm^2, 200
*Difference between the growth time for treated and control mice. The
growth time is the time interval for the tumour to grow to a volume of 1
cm^3 from the size at the time of irradiation (0.03-0.04 cm^3).
The growth time of control mice was 11 days.

[1] = Effect of 1064 nm light on the photosensitizer (recovery, group II); format: in vivo, C57 mice; conditions: injected 24 and 48 h before irradiation
Protocol: (§1) SiNc incorporated into DPPC liposomes was injected at a dose of 1 mg/kg body weight into the caudal vein of C57 mice bearing the B16 pigmented melanoma. Three groups of mice (three mice per each time point) were used: (a) unirradiated control mice; (b) mice injected immediately after irradiation with the Nd: YAG laser (1064 nm, one pulse, 650 mJ); (c) mice injected at 24 h or 48 h before irradiation under the same conditions indicated for group (b). In all cases, at 3, 24 and 48 h after injection of isoBO--SiNc (groups a and b) and immediately after irradiation (group c), the mice were sacrificed by prolonged exposure to ether vapor. The blood was rapidly taken, centrifuged at 3000 rpm for 10 min. to remove the erythrocytes, and the serum was analyzed for its isoBO--SiNc content by a spectrophotofluorimetric procedure (4) using 690 nm as the excitation wavelength. The liver, tumor and peritumoral skin (namely an area with a 0.5 cm width surrounding the tumor) were excised and their isoBO--SiNc content was determined spectrophotofluorimetrically as previously described (4,5).
II = mice injected at 24 and 48 h before irradiation (1064 nm, 650 mJ, 1
Special attention was paid to the recoveries obtained at 24 h and 48 h after injection since these time intervals correspond with the maximum isoBO--SiNc accumulation in a variety of transplanted tumors and are generally used for PDT. […]

[2] = set-up: species or system C57 mice; conditions: mouse, in vivo, iv, 1 mg/kg, 3 h
Protocol: as §1
The pharmacokinetic behavior of systematically injected isoBO--SiNc in unirradiated and 1064 nm-irradiated (650 mJ, one pulse) C57 mice is shown in Table 1.
C = control mice (mice not irradiated) […]
Values ± SD; three mice were independently analyzed each time, with th
exception of I where six mice were analyzed.

pigmented melanoma = conditions: very virulent pigmented melanoma; cited from earlier work
Amelanotic melanoma = conditions: cited from earlier work

Question: What does the source list for `CCCCCCCCCCCCCCCCCC[Si]([O-])(CC(C)C)CC(C)C.CCCCCCCCCCCCCCCCCC[Si]([O-])(CC(C)C)CC(C)C.[Si+4].c1ccc2cc3c(cc2c1)-c1nc2nc(nc4[n-]c(nc5[n-]c(nc-3n1)c1cc3ccccc3cc51)c1cc3ccccc3cc41)-c1cc3ccccc3cc1-2` [isoBO-SiNc, Bis(di-isobutyloctadecylsiloxy)-2,3-naphthalocyanato silicon]?
Answer: delay of tumor regrowth (B16 pigmented melanoma; 1 mg/kg, PDT 300 mW/cm^2, 520 J/cm^2, 776 nm diode laser immediately after 1064 nm irradiation): 11 days; Mice tumour free time (B16 pigmented melanoma; HPP + PDT): 9 days; Mice tumour free time (B16 pigmented melanoma; HPP + PDT + HPP + PDT (retreated 10 days later)): 21 days; Regrowth delay (B16 pigmented melanoma; HPP + PDT + HPP + PDT (retreated 10 days later), growth time to 1 cm^3 vs control mice): 27 days; Mice tumour free time (B16 pigmented melanoma; HPP + PDT + PTT (774 nm, 550 mW/cm^2, 200 J/cm^2)): 22 days; Regrowth delay (B16 pigmented melanoma; HPP + PDT + PTT, growth time to 1 cm^3 vs control mice): 34.6 days; Regrowth delay (B16 pigmented melanoma; HPP + PDT, growth time to 1 cm^3 vs control mice): 16.4 days; tumor response to combined HPP and PDT (B16 pigmented melanoma; HPP irradiation followed by PDT): remarkable retardation in tumor growth rate; also recorded: significant tumor response which is markedly larger than that obtained with either treatment alone; Mice tumour free time (B16 pigmented melanoma; PDT (774 nm, 300 mW/cm^2, 520 J/cm^2), 1 mg/kg): 2 days; animals essentially tumor-free post-PDT (B16 pigmented melanoma; PDT (776 nm; 300 mW/cm^2, 520 J/cm^2) 24 h post injection, immediately after HPP 650 mJ pulse, FIG. 3): ~11 days; Mice tumour free time (B16 pigmented melanoma; PDT + HPP (1064 nm Nd:YAG, 650 mJ per pulse)): 2 days; Regrowth delay (B16 pigmented melanoma; PDT + HPP, growth time to 1 cm^3 vs control mice): 7 days; delay of tumor regrowth (B16 pigmented melanoma; PDT under identical conditions without the pre-irradiation): 4 days; Regrowth delay (B16 pigmented melanoma; PDT, difference in growth time to 1 cm^3 between treated and control mice): 6.3 days; effect of 1064 nm irradiation on recovery / integrity of the photosensitizer [1]: no appreciable effect on the recovery; also recorded: not affected by 1064 nm light; Recovery of isoBO-SiNc from selected tissues: peritumoural skin [2]: 0.44 ± 0.1 μg of drug per g

Question: What does the source list for Photofrin?
Answer: response of pigmented melanoma to PDT (pigmented melanoma): poorly responsive; response of amelanotic melanoma to Photofrin-PDT (Amelanotic melanoma): successfully treated
